Laboratory results: patent EP0942906B1, “COMPOUNDS USEFUL FOR INHIBITION OF FARNESYL PROTEIN TRANSFERASE” (SCHERING CORPORATION, priority 1996, dated 1998)
Where two headings read alike, the source gives them in different places.

Experiments:
[1] = biological target: farnesyl protein transferase (Homo sapiens, UniProt P49354+P49356); assay: FPT IC50, inhibition of farnesyl protein transferase, in vitro enzyme assay (procedure of WO 95/10516); assay type: biochemical; details: range stated for the listed group of compounds
farnesyl protein transferase, sequence (P49356 whole entry, one chain of several): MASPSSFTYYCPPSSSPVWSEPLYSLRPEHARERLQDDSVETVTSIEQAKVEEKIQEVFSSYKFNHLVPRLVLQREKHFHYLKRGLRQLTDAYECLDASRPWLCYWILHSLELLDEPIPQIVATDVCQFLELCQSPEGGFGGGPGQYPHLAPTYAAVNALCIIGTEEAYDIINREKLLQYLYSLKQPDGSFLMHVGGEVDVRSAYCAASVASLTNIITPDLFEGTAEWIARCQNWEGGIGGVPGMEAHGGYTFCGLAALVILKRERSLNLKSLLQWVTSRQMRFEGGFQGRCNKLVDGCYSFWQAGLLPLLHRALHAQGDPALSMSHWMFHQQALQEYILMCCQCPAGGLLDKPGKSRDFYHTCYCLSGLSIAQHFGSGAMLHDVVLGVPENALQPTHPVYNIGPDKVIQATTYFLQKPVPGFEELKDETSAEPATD
Protocol: (§1) FPT IC50 (inhibition of farnesyl protein transferase, in vitro enzyme assay) and COS Cell IC50 (Cell-Based Assay) were determined following the assay procedures described in WO 95/10516, published April 20, 1995. GGPT IC50 (inhibition of geranylgeranyl protein transferase, in vitro enzyme assay), Cell Mat Assay, and anti-tumor activity (in vivo anti-tumor studies) could be determined by the assay procedures described in WO 95/10516.

COS Cell = COS Cell IC50 (Cell-Based Assay, procedure of WO 95/10516); details: range stated for the listed group of compounds, read-out: Cos Cell
Protocol: as §1

Human tumor cells = assay: Soft Agar Assay (anchorage-independent growth, colony count after MTT staining); assay type: cell-based; details: range stated for the listed group of compounds
Protocol: Anchorage-independent growth is a characteristic of tumorigenic cell lines. Human tumor cells are suspended in growth medium containing 0.3% agarose and an indicated concentration of a farnesyl transferase inhibitor. The solution is overlayed onto growth medium solidified with 0.6% agarose containing the same concentration of farnesyl transferase inhibitor as the top layer. After the top layer is solidified, plates are incubated for 10-16 days at 37°C under 5% CO2 to allow colony outgrowth. After incubation, the colonies are stained by overlaying the agar with a solution of MTT (3-[4,5-dimethylthiazol-2-yl]-2.5-diphenyltetrazolium bromide, Thiazolyl blue) (1 mg/mL in PBS). Colonies can be counted and the IC50's can be determined.

[2] = ras form not stated, read-out: FPT IC50
[3] = H-ras, read-out: FPT IC50 (H-ras)

Row | Structure (SMILES) | IC50 [1, 2] | IC50 (Human tumor cells) | IC50 [1, 3] | IC50 (COS Cell)
1 | O=C(Cc1c[nH]cn1)N1CCC(CC(=O)N2CCC([C@H]3c4ncc(Br)cc4CCc4cc(Cl)cc(Br)c43)CC2)CC1 [Compound 30.0-B] | 0.7 to 18 nM | ≥ 19.5 nM |  | ≥ 9 nM
2 | O=C(CC1CCN(C(=O)Cn2cncn2)CC1)N1CCC([C@H]2c3ncc(Br)cc3CCc3cc(Cl)cc(Br)c32)CC1 [Compound 57.0-B] | 0.7 to 18 nM | ≥ 19.5 nM |  | ≥ 9 nM
3 | COC(=O)CCCCCC(=O)N1CCC(CC(=O)N2CCC([C@H]3c4ncc(Br)cc4CCc4cc(Cl)cc(Br)c43)CC2)CC1 [Compound 68.0-B] | 0.7 to 18 nM | ≥ 19.5 nM |  | ≥ 9 nM
4 | O=C(O)CCCCCC(=O)N1CCC(CC(=O)N2CCC([C@H]3c4ncc(Br)cc4CCc4cc(Cl)cc(Br)c43)CC2)CC1 [Compound 70.0-B] | 0.7 to 18 nM | ≥ 19.5 nM |  | ≥ 9 nM
5 | CC(=O)C(=O)N1CCC(CC(=O)N2CCC([C@H]3c4ncc(Br)cc4CCc4cc(Cl)cc(Br)c43)CC2)CC1 [Compound 72.0-B] | 0.7 to 18 nM | ≥ 19.5 nM |  | ≥ 9 nM
6 | O=C(O)C[C@H](O)CC(=O)N1CCC(CC(=O)N2CCC([C@H]3c4ncc(Br)cc4CCc4cc(Cl)cc(Br)c43)CC2)CC1 [Compound 74.0-B] | 0.7 to 18 nM | ≥ 19.5 nM |  | ≥ 9 nM
7 | O=C(CC1CCN(C(=O)CN2CCCCC2)CC1)N1CCC([C@H]2c3ncc(Br)cc3CCc3cc(Cl)cc(Br)c32)CC1 [Compound 75.0-B] | 0.7 to 18 nM | ≥ 19.5 nM |  | ≥ 9 nM
8 | O=C1NC(=O)C(CC(=O)N2CCC(CC(=O)N3CCC([C@H]4c5ncc(Br)cc5CCc5cc(Cl)cc(Br)c54)CC3)CC2)N1 (stereo partly shown) [Compound 77.0-B] | 0.7 to 18 nM | ≥ 19.5 nM |  | ≥ 9 nM
9 | O=C(CC1CCN(C(=O)CN2C(=O)CSC2=O)CC1)N1CCC([C@H]2c3ncc(Br)cc3CCc3cc(Cl)cc(Br)c32)CC1 [Compound 79.0-B] | 0.7 to 18 nM | ≥ 19.5 nM | 2 to 31.7 nM | ≥ 9 nM
10 | O=C(C(=O)N1CCC(CC(=O)N2CCC([C@H]3c4ncc(Br)cc4CCc4cc(Cl)cc(Br)c43)CC2)CC1)c1cccs1 [Compound 81.0-B] | 0.7 to 18 nM | ≥ 19.5 nM |  | ≥ 9 nM
11 | O=C(Cc1cccs1)N1CCC(CC(=O)N2CCC([C@H]3c4ncc(Br)cc4CCc4cc(Cl)cc(Br)c43)CC2)CC1 [Compound 82.0-B] | 0.7 to 18 nM | ≥ 19.5 nM |  | ≥ 9 nM
12 | O=C(CC1CCOCC1)N1CCC(CC(=O)N2CCC([C@H]3c4ncc(Br)cc4CCc4cc(Cl)cc(Br)c43)CC2)CC1 [Compound 85.0-B] | 0.7 to 18 nM | ≥ 19.5 nM |  | ≥ 9 nM
13 | NCCC(=O)N1CCC(CC(=O)N2CCC([C@H]3c4ncc(Br)cc4CCc4cc(Cl)cc(Br)c43)CC2)CC1 [Compound 88.0-B] | 0.7 to 18 nM | ≥ 19.5 nM |  | ≥ 9 nM
14 | CC(C)(C)OC(=O)NCCCC(=O)N1CCC(CC(=O)N2CCC([C@H]3c4ncc(Br)cc4CCc4cc(Cl)cc(Br)c43)CC2)CC1 [Compound 89.0-B] | 0.7 to 18 nM | ≥ 19.5 nM |  | ≥ 9 nM
15 | O=C(CON=Cc1ccccc1O)N1CCC(CC(=O)N2CCC(C3c4ncc(Br)cc4CCc4cc(Cl)cc(Br)c43)CC2)CC1 (stereo not shown) [Compound 95.0-B] | 0.7 to 18 nM | ≥ 19.5 nM |  | ≥ 9 nM
16 | COC(=O)CCCCC(=O)N1CCC(CC(=O)N2CCC([C@H]3c4ncc(Br)cc4CCc4cc(Cl)cc(Br)c43)CC2)CC1 [Compound 101.0-B] | 0.7 to 18 nM | ≥ 19.5 nM |  | ≥ 9 nM
17 | COC(=O)C(=O)N1CCC(CC(=O)N2CCC([C@H]3c4ncc(Br)cc4CCc4cc(Cl)cc(Br)c43)CC2)CC1 [Compound 104.0-B] |  | ≥ 19.5 nM | 2 to 31.7 nM | ≥ 9 nM
18 | O=C(O)CCCCC(=O)N1CCC(CC(=O)N2CCC([C@H]3c4ncc(Br)cc4CCc4cc(Cl)cc(Br)c43)CC2)CC1 [Compound 107.0-B] | 0.7 to 18 nM | ≥ 19.5 nM |  | ≥ 9 nM
19 | O=C(CC1CCN(C(=O)CC2COCCO2)CC1)N1CCC([C@H]2c3ncc(Br)cc3CCc3cc(Cl)cc(Br)c32)CC1 (stereo partly shown) [Compound 114.2-B] | 0.7 to 18 nM | ≥ 19.5 nM |  | ≥ 9 nM
20 | O=C(CC1CCN(C(=O)CC2CCCO2)CC1)N1CCC([C@H]2c3ncc(Br)cc3CCc3cc(Cl)cc(Br)c32)CC1 (stereo partly shown) [Compound 114.4-B] | 0.7 to 18 nM | ≥ 19.5 nM |  | ≥ 9 nM

More lines, main results first:

Row | IC50 [1, 2] | IC50 (Human tumor cells) | IC50 [1, 3] | Structure (SMILES) | IC50 (COS Cell)
21 | 0.7 to 18 nM | ≥ 19.5 nM |  | O=C(CC1CCN(C(=O)Cn2cnc([N+](=O)[O-])c2)CC1)N1CCC([C@H]2c3ncc(Br)cc3CCc3cc(Cl)cc(Br)c32)CC1 [Compound 26.0-B] | ≥ 9 nM
22 | 0.7 to 18 nM | ≥ 19.5 nM |  | CN(C)C(=O)C(=O)N1CCC(CC(=O)N2CCC([C@H]3c4ncc(Br)cc4CCc4cc(Cl)cc(Br)c43)CC2)CC1 [Compound 33.0-B] | ≥ 9 nM
23 | 0.7 to 18 nM | ≥ 19.5 nM |  | O=C(CC1CCN(C(=O)Cn2cccc2)CC1)N1CCC([C@H]2c3ncc(Br)cc3CCc3cc(Cl)cc(Br)c32)CC1 [Compound 34.0-B] | ≥ 9 nM
24 | 0.7 to 18 nM | ≥ 19.5 nM |  | COC(=O)c1cccn1CC(=O)N1CCC(CC(=O)N2CCC([C@H]3c4ncc(Br)cc4CCc4cc(Cl)cc(Br)c43)CC2)CC1 [Compound 35.0-B] | ≥ 9 nM
25 | 0.7 to 18 nM | ≥ 19.5 nM |  | O=C(CO)N1CCC(CC(=O)N2CCC([C@H]3c4ncc(Br)cc4CCc4cc(Cl)cc(Br)c43)CC2)CC1 [Compound 37.0-B] | ≥ 9 nM
26 | 0.7 to 18 nM | ≥ 19.5 nM |  | N#CCC(=O)N1CCC(CC(=O)N2CCC([C@H]3c4ncc(Br)cc4CCc4cc(Cl)cc(Br)c43)CC2)CC1 [Compound 44.0-B] | ≥ 9 nM
27 | 0.7 to 18 nM | ≥ 19.5 nM |  | CONC(=O)C(=O)N1CCC(CC(=O)N2CCC([C@H]3c4ncc(Br)cc4CCc4cc(Cl)cc(Br)c43)CC2)CC1 [Compound 49.0-B] | ≥ 9 nM
28 | 0.7 to 18 nM | ≥ 19.5 nM |  | NC(=O)CC(=O)N1CCC(CC(=O)N2CCC([C@H]3c4ncc(Br)cc4CCc4cc(Cl)cc(Br)c43)CC2)CC1 [Compound 50.0-B] | ≥ 9 nM
29 | 0.7 to 18 nM | ≥ 19.5 nM |  | O=C(O)c1cccn1CC(=O)N1CCC(CC(=O)N2CCC([C@H]3c4ncc(Br)cc4CCc4cc(Cl)cc(Br)c43)CC2)CC1 [Compound 52.0-B] | ≥ 9 nM
30 | 0.7 to 18 nM | ≥ 19.5 nM |  | CCOC(=O)c1c(C)ncn1CC(=O)N1CCC(CC(=O)N2CCC([C@H]3c4ncc(Br)cc4CCc4cc(Cl)cc(Br)c43)CC2)CC1 [Compound 53.0-B] | ≥ 9 nM
31 | 0.7 to 18 nM | ≥ 19.5 nM |  | CCOC(=O)c1ncn(CC(=O)N2CCC(CC(=O)N3CCC([C@H]4c5ncc(Br)cc5CCc5cc(Cl)cc(Br)c54)CC3)CC2)c1C [Compound 54.0-B] | ≥ 9 nM
32 | 0.7 to 18 nM | ≥ 19.5 nM |  | O=C(OCc1ccccc1)c1cccn1CC(=O)N1CCC(CC(=O)N2CCC([C@H]3c4ncc(Br)cc4CCc4cc(Cl)cc(Br)c43)CC2)CC1 [Compound 55.0-B] | ≥ 9 nM
33 | 0.7 to 18 nM | ≥ 19.5 nM |  | COC(=O)Cc1cn(CC(=O)N2CCC(CC(=O)N3CCC([C@H]4c5ncc(Br)cc5CCc5cc(Cl)cc(Br)c54)CC3)CC2)cn1 [Compound 56.0-B] | ≥ 9 nM
